US20230330254A1 (Regeneron Pharmaceuticals, Inc., priority 2022, published 2023)
Where “and” joins values, the source holds several entries; their conditions need not be identical. Equal entries are not always repeated. Where two headings read alike, the source gives them in different places. *1 amine or outer side, *2 acyl side, *3 side chain or, on linkers, in order; H or OH if unused. Where a SMILES comes first, the peptide text is derived from it. Side-chain parts run from the residue outwards. [ ]: non-standard residue; d: D form. The star is where a group is joined. Bip(2'-Et-4'-O(CH2)4NH2) = CCc1cc(OCCCCN[*:3])ccc1-c1ccc(C[C@H](N[*:1])C(=O)[*:2])cc1; Bip(2'-Et,4'-O(CH2)4N3) = CCc1cc(OCCCCN=[N+]=[N-])ccc1-c1ccc(C[C@H](N)C(=O)O)cc1; Malonyl(2,2-Me2,histaminyl) = CC(C)(C(=O)NCCc1cnc[nH]1)C(=O)*; Nva(5-(3,5-Me2Ph)) = Cc1cc(C)cc(CCC[C@H](N)C(=O)O)c1; Ala(1H-tetrazol-5-yl) = N[C@@H](Cc1nnn[nH]1)C(=O)O; PEG8 = NCCOCCOCCOCCOCCOCCOCCOCCOCCC(=O)O; αMePhe(2-F) = C[C@](N)(Cc1ccccc1F)C(=O)O; DBCO = C1#Cc2ccccc2N(*)Cc2ccccc21; Suc = O=C(CCC(=O)[*:2])[*:1]

Experiments:
human GLP1R [1] = target: T1, human GLP1R (Homo sapiens, UniProt P43220); assay: Luciferase reporter assay, HEK293/CRE-Luc/hGLP1R (Example 17); format: cell-based; parameters: engineered to express full-length human GLP1R, cynomolgus GLP1R; expressed in transfected cells; host or cells: HEK293/CRE-Luc; conditions: HEK293/CRE-Luc/hGLP1R
Method in brief: (§1)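 HEK293 cells carrying a CRE-driven firefly luciferase reporter were exposed to 3-fold serial dilutions of payloads or linker-payloads (12 points, 0.2% DMSO final) for 4–6 h, then luminescence was read. EC50 came from a four-parameter logistic fit; S/N is top RLU over untreated wells, and relative potency and S/N are referenced to M2361.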

[2] = Water solubility of linker-payload; format: physicochemical
human GLP1R [3] = target: T1, human GLP1R; assay: CRE-Luc cAMP reporter assay, HEK293/CRE-Luc/hGLP1R (Example 24); format: cell-based; parameters: engineered to express full-length human GLP1R, cynomolgus GLP1R; expressed in transfected cells; host or cells: HEK293/CRE-Luc; conditions: HEK293, read-out: HEK293/CRE-Luc/hGLP1R Emax (% GLP-1)
Excerpt: To test the activity of GLP1R agonist payloads, GLP1R agonist linker-payloads (LPs), and anti-GLP1R antibody-tethered ligands (ATLs) of the invention, a cell-based cAMP responsive luciferase reporter assay was developed. To generate the assay cell line, the firefly luciferase gene was placed under the control of a cAMP response element (CRE) located upstream of a minimal promoter and transfected into HEK293 cells and referred to herein as HEK293/CRE-Luc cells. HEK293/CRE-Luc cells were then engineered to express full-length human GLP1R (HEK293/CRE-Luc/hGLP1R), cynomolgus GLP1R (HEK293/CRE-Luc/mfGLP1R), or mouse GLP1R (HEK293/CRE-Luc/mGLP1R).
Serial dilutions of free payload and linker payloads (LP) were performed in 100% DMSO (ATCC, #4-X-5), followed by 1:100 dilution in assay media. Test articles were added to cells (1:5 dilution) with the last well in each serial dilution series serving as a blank control containing only assay media for antibodies and ATLs or assay media with 0.2% DMSO for payloads and LPs. After a 5-hour incubation at 37° C., luciferase activity was determined by addition of ONE-Glo reagent (Promega, #E6130) followed by measurement of relative light units (RLUs) on an EnVision Plate Reader (Perkin Elmer).
(§2) EC50 values for luminescence assays were determined using a four-parameter logistic equation over a 12-point dose response curve (GraphPad Prism).

HEK293/CRE-Luc cells = assay: Luciferase reporter assay, HEK293/CRE-Luc cells without GLP1R (Example 17); format: cell-based, human
Method in brief: as §1

human GLP1R [4] = target: T1, human GLP1R; assay: b-arrestin 2 recruitment assay, PathHunter CHO/b-arrestin 2/hGLP1R cells; format: cell-based; conditions: read-out: CHO/b-arrestin 2/hGLP1R Emax (% GLP-1)
Protocol: The b-arrestin 2 recruitment assay was performed following manufacter's instructions (Eurofins DiscoverX, #93-0300E2CP0M), with minor modifications. […] Serial dilutions of free payload and LP were performed in 100% DMSO, followed by 1:100 dilution in assay media. Test articles were added to cells (1:5 dilution) with the last well in each serial dilution series serving as a blank control containing only assay media for antibodies and ATLs or assay media with 0.2% DMSO for payload and LP. After a 90-minute incubation at 37° C., PathHunter Detection Reagent (Eurofins DiscoverX, #93-0300E2CP0M) was added to the wells followed by a 1-hour incubation at room temperature. RLUs were measured on EnVision Plate Reader (Perkin Elmer).
as §2

[5] = relative to M2361 of the same experiment
[6] = ATDCs and references (Table 27)

T1 sequence (P43220 24-463): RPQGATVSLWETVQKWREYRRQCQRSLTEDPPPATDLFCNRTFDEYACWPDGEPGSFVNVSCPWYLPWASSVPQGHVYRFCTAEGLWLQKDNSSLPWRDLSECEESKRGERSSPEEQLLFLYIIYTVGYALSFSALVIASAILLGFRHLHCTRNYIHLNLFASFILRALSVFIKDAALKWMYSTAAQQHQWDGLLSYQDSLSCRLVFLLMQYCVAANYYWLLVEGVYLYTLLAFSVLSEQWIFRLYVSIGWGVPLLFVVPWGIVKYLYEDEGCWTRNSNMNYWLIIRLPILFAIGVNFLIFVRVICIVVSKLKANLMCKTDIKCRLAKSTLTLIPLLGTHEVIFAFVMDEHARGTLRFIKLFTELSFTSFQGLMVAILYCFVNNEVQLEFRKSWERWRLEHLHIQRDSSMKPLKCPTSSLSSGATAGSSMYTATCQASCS

S/N (human GLP1R [1]; highest RLU / RLU of untreated wells)	EC50 (human GLP1R [1]; payloads and linker-payloads, experiments A-E, M2361 repeated in each, read-out: EC50) [nM]	solubility [2] [µM]	SMILES	Relative Potency (% M2361 EC50) (human GLP1R [1]; [5]) [%]	Relative Signal:Noise (% M2361) (human GLP1R [1]; [5]) [%]	Emax (human GLP1R [3]) [%]	S/N (HEK293/CRE-Luc cells; HEK293/CRE-Luc cells without hGLP1R, ATDCs and references (Table 27))	EC50 (HEK293/CRE-Luc cells; HEK293/CRE-Luc cells without hGLP1R, ATDCs and references (Table 27), read-out: EC50) [nM]	S/N (HEK293/CRE-Luc cells; HEK293/CRE-Luc cells without hGLP1R, payloads and linker-payloads)	EC50 (HEK293/CRE-Luc cells; Table 28, reporter cells without GLP1R, read-out: HEK293/CRE-Luc EC50) [nM]	EC50 (HEK293/CRE-Luc cells; Table 29, reporter cells without GLP1R, read-out: HEK293/CRE-Luc EC50) [nM]	Relative Potency (% M2361 EC50) (human GLP1R [1]; [6]) [%]	Relative Signal:Noise (% M2361) (human GLP1R [1]; [6]) [%]	S/N (human GLP1R [1]; [6])	Emax (human GLP1R [4]) [%]
323.1	0.0742	≥ 0.06	CCc1cc(OCCCCNC(=O)CCOCCOCCOCCOCCOCCOCCOCCOCCNC(=O)CCC(=O)N2Cc3ccccc3C#Cc3ccccc32)ccc1-c1ccc(C[C@H](NC(=O)[C@H](CC(=O)O)NC(=O)[C@H](CO)NC(=O)[C@@H](NC(=O)[C@](C)(Cc2ccccc2F)NC(=O)[C@@H](NC(=O)CNC(=O)[C@H](Cc2nn[nH]n2)NC(=O)C(C)(C)C(=O)NCCc2cnc[nH]2)[C@@H](C)O)[C@@H](C)O)C(=O)N[C@@H](CCCc2cc(C)cc(C)c2)C(N)=O)cc1 [LP2, DIBAC-suc-PEG8-P9] ({Malonyl(2,2-Me2,histaminyl)}-[Ala(1H-tetrazol-5-yl)]GT[αMePhe(2-F)]TSD[Bip(2'-Et-4'-O(CH2)4NH2)]([PEG8-Suc-DBCO])[Nva(5-(3,5-Me2Ph))]-NH2)	36.8	137.0	–	–	–	–	–	–	–	–	–	–
–	–	–	CCc1cc(OCCCCN=[N+]=[N-])ccc1-c1ccc(C[C@H](NC(=O)[C@H](CC(=O)O)NC(=O)[C@H](CO)NC(=O)[C@@H](NC(=O)[C@](C)(Cc2ccccc2F)NC(=O)[C@@H](NC(=O)CNC(=O)[C@H](Cc2nn[nH]n2)NC(=O)C(C)(C)C(=O)NCCc2cnc[nH]2)[C@@H](C)O)[C@@H](C)O)C(=O)N[C@@H](CCCc2cc(C)cc(C)c2)C(N)=O)cc1 [M2361] ({Malonyl(2,2-Me2,histaminyl)}-[Ala(1H-tetrazol-5-yl)]GT[αMePhe(2-F)]TSD[Bip(2'-Et,4'-O(CH2)4N3)][Nva(5-(3,5-Me2Ph))]-NH2)	100.0	100.0	95.8	1.3	> 20	1.5 and 1.3	> 200	> 30	100.0	100.0	64.3	107
